Assay results reported in patent US11674959B2, “Methods for identifying and preparing pharmaceutical agents for activating Tie1 and/or Tie2 receptors” (The Johns Hopkins University, priority 2017, dated 2023).

How the values were obtained:
integrin αvβ3 = integrin αvβ3 (Homo sapiens, UniProt P05106+P06756); conditions: Lee et al. 2014; Lima et al. 2017; cited from earlier work
Erk1/2 = experiment: Western blot of MEC lysates: Erk1/2 phosphorylation; assay type: cell-based, human; conditions: all tested conditions
Description: (§1) To investigate the effects of the integrin inhibitor AXT107 on Tie2 signaling, confluent monolayers of microvascular endothelial cells (MECs) on fibronectin-coated dishes were treated with various concentrations of AXT107 followed by exposure to the Tie2 ligands Ang1 or Ang2.
Human dermal microvascular endothelial cells (Lonza) were maintained at 37° C. and 5% CO2 in EBM-2MV medium (Lonza) and used between passages two through seven. Where applicable, cells were serum starved in EBM-2 medium (Lonza) with no supplements. For FITC-Dextran permeability assays phenol red-free media were used to avoid auto-fluorescence. […]
For Ang1/2 signaling investigations, cell culture dishes (10 cm diameter) were coated with 5 μg/ml fibronectin (FN1; Sigma-Aldrich, St. Louis, Mo.) for two hours at 37° C. […] Specific proteins were identified by Western blot, using the following primary antibodies: Cell Signaling—phospho-Tie2 (Y992) (Cat #: 4221), Tie2 (Cat #: 7403), phospho-Stat3 (Y705) (Cat #: 4113), Stat3 (Cat #: 4904), phospho-Akt (S473) (Cat #: 4058), Akt (Cat #: 9272), phospho-p44/42 MAPK (T202/Y204) (Cat #: 4370), p44/42 MAPK (Cat #: 4695); BD Transduction Laboratories—β1 integrin (Cat #: 610467); Millipore—α5 integrin (Cat #: AB1928) and detected with HRP-conjugated goat anti-rabbit and sheep anti-mouse secondary antibodies (GE healthcare).

Tie2 = experiment: Western blot of MEC lysates, Ang1/2 signaling: Tie2 phosphorylation; assay type: cell-based, human
Description: as §1
Human dermal microvascular endothelial cells (Lonza) were maintained at 37° C. and 5% CO2 in EBM-2MV medium (Lonza) and used between passages two through seven. Where applicable, cells were serum starved in EBM-2 medium (Lonza) with no supplements. For FITC-Dextran permeability assays phenol red-free media were used to avoid auto-fluorescence. AXT107 were manufactured at New England Peptide by […], lyophilized, and dissolved in 100% DMSO.
For Ang1/2 signaling investigations, cell culture dishes (10 cm diameter) were coated with 5 μg/ml fibronectin (FN1; Sigma-Aldrich, St. Louis, Mo.) for two hours at 37° C. The FN1 solution was then removed by aspiration and 5×10^6 microvascular endothelial cells (MECs; Lonza, Walkersville, Md.) were plated in EGM-2MV media (Lonza) and cultured for forty-eight hours at 37° C. The cells were then serum starved for sixteen hours in serum-free EGM-2 base media (Lonza). AXT107 (0-100 μM, as indicated) was subsequently added to each culture and incubated for seventy-five minutes at 37° C. The cultures were then treated with 1 mM sodium vanadate (New England Biolabs, Ipswich, Mass.) for fifteen minutes to enhance the phospho-Tie2 signal followed by stimulation with 200 ng/ml angiopoietin (R&D Systems, Minneapolis, Minn.) for an additional fifteen minutes. The cells were then transferred to ice, washed twice with ice cold Dulbecco's phosphate-buffered saline (dPBS) containing Ca^2+ and Mg^2+, and collected by scraping in 500 μl of 1× Blue Loading Buffer (Cell Signaling, Danvers, Mass.). Lysate samples were then sonicated, boiled, and resolved by SDS-PAGE. Specific proteins were identified by Western blot, using the following primary antibodies: Cell Signaling—phospho-Tie2 (Y992) (Cat #: 4221), Tie2 (Cat #: 7403), phospho-Stat3 (Y705) (Cat #: 4113), Stat3 (Cat #: 4904), phospho-Akt (S473) (Cat #: 4058), Akt (Cat #: 9272), phospho-p44/42 MAPK (T202/Y204) (Cat #: 4370), p44/42 MAPK (Cat #: 4695); BD Transduction Laboratories—β1 integrin (Cat #: 610467); Millipore—α5 integrin (Cat #: AB1928) and detected with HRP-conjugated goat anti-rabbit and sheep anti-mouse secondary antibodies (GE healthcare).

Sequence of integrin αvβ3 (P06756 31-1048): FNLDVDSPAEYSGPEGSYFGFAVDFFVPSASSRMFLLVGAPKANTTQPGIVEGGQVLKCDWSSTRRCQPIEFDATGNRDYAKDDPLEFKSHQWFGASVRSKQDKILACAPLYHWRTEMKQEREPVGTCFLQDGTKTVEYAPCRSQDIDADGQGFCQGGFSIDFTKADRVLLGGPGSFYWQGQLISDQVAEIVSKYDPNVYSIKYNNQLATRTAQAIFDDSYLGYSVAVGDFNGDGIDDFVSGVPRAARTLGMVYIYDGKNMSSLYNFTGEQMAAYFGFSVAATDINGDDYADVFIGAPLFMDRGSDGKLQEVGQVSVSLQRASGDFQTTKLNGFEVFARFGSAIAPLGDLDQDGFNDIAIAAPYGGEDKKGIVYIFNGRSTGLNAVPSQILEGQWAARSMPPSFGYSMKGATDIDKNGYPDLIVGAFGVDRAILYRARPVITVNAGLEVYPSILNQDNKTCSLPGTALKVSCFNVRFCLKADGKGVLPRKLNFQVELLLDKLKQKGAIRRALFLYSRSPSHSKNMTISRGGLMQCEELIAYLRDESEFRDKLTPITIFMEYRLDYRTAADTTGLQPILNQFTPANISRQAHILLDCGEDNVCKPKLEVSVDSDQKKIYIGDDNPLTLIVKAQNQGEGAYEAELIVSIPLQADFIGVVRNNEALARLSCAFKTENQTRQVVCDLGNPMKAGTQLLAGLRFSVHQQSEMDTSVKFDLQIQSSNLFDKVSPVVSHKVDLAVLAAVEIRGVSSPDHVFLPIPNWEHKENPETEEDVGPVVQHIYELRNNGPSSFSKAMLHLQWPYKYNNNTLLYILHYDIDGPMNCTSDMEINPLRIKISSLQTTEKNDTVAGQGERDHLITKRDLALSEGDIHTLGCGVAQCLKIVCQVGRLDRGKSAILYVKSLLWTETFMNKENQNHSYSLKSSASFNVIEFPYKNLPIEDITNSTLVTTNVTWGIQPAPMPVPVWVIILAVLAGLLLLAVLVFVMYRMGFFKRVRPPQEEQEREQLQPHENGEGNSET
Sequence of integrin αvβ3 (P05106 27-788): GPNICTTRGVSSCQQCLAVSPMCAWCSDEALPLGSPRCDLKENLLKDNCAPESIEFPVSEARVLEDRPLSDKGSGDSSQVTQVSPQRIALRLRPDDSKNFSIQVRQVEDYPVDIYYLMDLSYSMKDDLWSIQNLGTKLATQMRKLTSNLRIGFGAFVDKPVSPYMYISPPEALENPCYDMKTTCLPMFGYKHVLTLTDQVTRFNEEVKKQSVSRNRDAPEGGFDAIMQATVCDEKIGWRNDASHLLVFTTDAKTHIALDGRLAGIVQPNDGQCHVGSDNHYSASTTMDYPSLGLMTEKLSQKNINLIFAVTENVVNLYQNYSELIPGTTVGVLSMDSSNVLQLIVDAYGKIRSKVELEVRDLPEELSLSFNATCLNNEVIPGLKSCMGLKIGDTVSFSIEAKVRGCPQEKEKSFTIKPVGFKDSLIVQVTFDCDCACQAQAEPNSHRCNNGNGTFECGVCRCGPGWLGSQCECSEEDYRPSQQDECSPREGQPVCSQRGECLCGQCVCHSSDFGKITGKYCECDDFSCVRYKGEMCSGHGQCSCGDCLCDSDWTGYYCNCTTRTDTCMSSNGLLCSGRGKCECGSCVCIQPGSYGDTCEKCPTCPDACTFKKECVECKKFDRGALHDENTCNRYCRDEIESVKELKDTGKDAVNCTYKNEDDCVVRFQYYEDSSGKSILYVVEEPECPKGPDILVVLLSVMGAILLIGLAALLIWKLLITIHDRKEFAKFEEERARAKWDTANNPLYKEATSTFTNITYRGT

In the case of LRRFSTAPFAFIDINDVINF [AXT107], the “Binding to integrin αvβ3” value (integrin αvβ3) is given as “binds tightly”, the Erk1/2 phosphorylation (Erk1/2) is given as “remained constant in all tested conditions” and the Tie2 phosphorylation (Tie2; AXT107 (0-100 μM) in combination with 200 ng/ml Ang2) is given as “significant, dose-dependent increase in Tie2 phosphorylation”. For the same sequence, the “Influence on Ang1 activity (Tie2 phosphorylation)” value (Tie2; MECs on fibronectin, AXT107 then Ang1, data not shown) was “did not significantly influence Ang1 activity”, the “Phosphorylation by peptide alone” value (Tie2; absence of either ligand) was “phosphorylation was not induced by peptide alone” and the “Total protein levels of Tie2 and the downstream targets” value (Tie2; data not shown) was “remained unchanged”.
